Among the test systems are OVCAR-3; A498; HCT-15; SK-MEL-5; COLO 205; K562; SNB-19; RPMI-8226; IGROV-1; SK-MEL-2; MDA-N; MDA-MB-435; BT-549; HT-29; SF-539; NCI-H522; SK-OV-3; OVCAR-4.
Common to all, as to assay: NCI-60 cell line screen, 48 h

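Five concentrations, 48 hours, 96-well plates. The concentration for 50% growth inhibition is given as GI50.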 Activity calls are given as the source filed them. Rule as the data show it: active = GI50 up to about 1.1 µM and inactive = higher.

Take `CSc1nn(C)cc2ncnc1-2`: the GI50 is > 100 µM (inactive) in the assay with OVCAR-3; > 100 µM (inactive) in the assay with A498; greater than 100 µM in the assay on HCT-15; > 100 µM (inactive) in the assay with SK-MEL-5; > 100 µM (inactive) with COLO 205; > 100 µM (inactive) with K562. The GI50 with SNB-19, in the assay with RPMI-8226, in the assay with IGROV-1, in the assay on SK-MEL-2, in the assay on MDA-N and in the assay on MDA-MB-435 was > 100 µM (inactive) throughout. The GI50 in the assay with BT-549, in the assay with HT-29 and with SF-539 was > 100 µM (inactive) each time.
For the molecule `Cc1cccc(C)c1NC(=O)/C(Cc1nc2ccc([N+](=O)[O-])cc2nc1O)=N\NC(N)=O`, the GI50 is > 100 µM (inactive) with OVCAR-3; 82.4 µM (inactive) in the assay with A498; greater than 100 µM in the assay on HCT-15; 31.6 µM (inactive) in the assay with NCI-H522; > 100 µM (inactive) in the assay with SK-MEL-5; 38.9 µM (inactive) with COLO 205. Further, the GI50 in the assay on K562 was 39.7 µM (inactive); in the assay with SNB-19, > 100 µM (inactive); in the assay with RPMI-8226, 37.9 µM (inactive); in the assay on IGROV-1 it was 89.3 µM (inactive); in the assay with SK-MEL-2, > 100 µM (inactive); with SK-OV-3 it was > 100 µM (inactive). The GI50 with OVCAR-4 is 90.6 µM (inactive); with MDA-MB-435, 98.2 µM (inactive); with BT-549, 7.19 µM (inactive); in the assay on HT-29 it was > 100 µM (inactive); with SF-539 it was > 100 µM (inactive).
As for `NC(=O)CC(N)C(=O)NC(Cc1ccccc1)C(=O)NC(Cc1ccccc1)NC(=O)C(Cc1c[nH]c2ccccc12)C(=O)O` (stereo not given), the GI50 was > 100 µM (inactive) in the assay with OVCAR-3; > 100 µM (inactive) in the assay on A498; greater than 100 µM in the assay with HCT-15; > 100 µM (inactive) in the assay with NCI-H522; 49.4 µM (inactive) in the assay with SK-MEL-5; > 100 µM (inactive) in the assay with COLO 205. Besides, the GI50 in the assay on K562, in the assay with SNB-19, in the assay with RPMI-8226, with IGROV-1, in the assay with SK-MEL-2 and with SK-OV-3 was > 100 µM (inactive) throughout. Further, the GI50 with OVCAR-4, with MDA-MB-435, in the assay with HT-29 and in the assay on SF-539 was > 100 µM (inactive) each time.
Regarding `COc1c(Cl)nc2ccccc2c1N=[N+]=[N-]`, the GI50 with OVCAR-3 was > 100 µM (inactive); in the assay with A498 it was 12.4 µM (inactive); with SK-MEL-5, 40.5 µM (inactive); in the assay on COLO 205, > 100 µM (inactive); in the assay on K562 it was 83.9 µM (inactive); with SNB-19, > 100 µM (inactive). Also, the GI50 in the assay on RPMI-8226 was 95.7 µM (inactive); with IGROV-1 it was 49.5 µM (inactive); with SK-OV-3, > 100 µM (inactive); with OVCAR-4, > 100 µM (inactive); with MDA-N, > 100 µM (inactive); in the assay on MDA-MB-435, > 100 µM (inactive). In addition, the results for the GI50 in the assay on BT-549, with HT-29 and in the assay with SF-539 were 19.8 µM (inactive), > 100 µM (inactive) and 71.9 µM (inactive), respectively.
Consider `O=C1c2ccccc2-c2ccc(O)cc21`, for which the GI50 in the assay with A498 is 21.5 µM (inactive); in the assay on HCT-15, 21.6 µM; in the assay with NCI-H522, 16.1 µM (inactive); in the assay on SK-MEL-5 it was 19.4 µM (inactive); in the assay on COLO 205 it was 19.7 µM (inactive); in the assay on K562 it was 31.4 µM (inactive). Also, the GI50 in the assay with SNB-19 was 23.9 µM (inactive); with RPMI-8226, 39 µM (inactive); in the assay with IGROV-1 it was 18.6 µM (inactive); in the assay on SK-MEL-2, 21.5 µM (inactive); in the assay with OVCAR-4 it was 20.7 µM (inactive); in the assay with MDA-MB-435 it was 20.2 µM (inactive). The GI50 with HT-29 is 30.7 µM (inactive); in the assay with SF-539, 22.9 µM (inactive).
For the molecule `O=C1CC(c2ccsc2)n2cccc21` (stereo not given), the GI50 with OVCAR-3 was > 100 µM (inactive); with A498, > 100 µM (inactive); in the assay with HCT-15, greater than 100 µM; in the assay with NCI-H522, > 100 µM (inactive); in the assay with SK-MEL-5, > 100 µM (inactive); in the assay with COLO 205, > 100 µM (inactive). For the same molecule, the GI50 in the assay on K562, with SNB-19, with RPMI-8226, in the assay on IGROV-1, in the assay on SK-MEL-2 and in the assay on SK-OV-3 was > 100 µM (inactive) each time. Besides, the GI50 in the assay with OVCAR-4, with MDA-MB-435, with HT-29 and with SF-539 was > 100 µM (inactive) in each case.
For the molecule `C=C(C)CCC1CC=[N+]([O-])OC1C(C)(C)C` (stereo not given), the GI50 in the assay on OVCAR-3 was 66.1 µM (inactive); in the assay with A498, > 100 µM (inactive); in the assay with HCT-15 it was 26.1 µM; in the assay on NCI-H522, 24.2 µM (inactive); in the assay with SK-MEL-5, 32.5 µM (inactive); in the assay with COLO 205 it was 40.1 µM (inactive). Moreover, the GI50 is > 100 µM (inactive) with K562; 41.3 µM (inactive) in the assay on RPMI-8226; 34.6 µM (inactive) in the assay with IGROV-1; > 100 µM (inactive) with SK-OV-3; 42.3 µM (inactive) in the assay on MDA-N; 16.1 µM (inactive) in the assay on MDA-MB-435. Also, the GI50 with HT-29 is 44.5 µM (inactive); with SF-539 it was 72.6 µM (inactive).
As to `COc1cc2nc(-c3cccs3)[nH]c(=O)c2cc1OC`, the GI50 with OVCAR-3 is > 100 µM (inactive); in the assay with A498 it was > 100 µM (inactive); in the assay on HCT-15, greater than 100 µM; in the assay with NCI-H522, > 100 µM (inactive); in the assay with SK-MEL-5, > 100 µM (inactive); in the assay on COLO 205, > 100 µM (inactive). Further, the GI50 in the assay with K562 is > 100 µM (inactive); in the assay on SNB-19, > 100 µM (inactive); with RPMI-8226 it was 65.5 µM (inactive); with IGROV-1, 19.9 µM (inactive); in the assay with SK-MEL-2 it was > 100 µM (inactive); in the assay with SK-OV-3, > 100 µM (inactive). Also, the GI50 in the assay with OVCAR-4 was > 100 µM (inactive); in the assay with MDA-MB-435, > 100 µM (inactive); in the assay on BT-549, > 100 µM (inactive); with HT-29, > 100 µM (inactive); in the assay with SF-539, 38.7 µM (inactive).
As for `COC(=O)CP1(=O)OC2C(C3CCC2(C)C3(C)C)N1c1cc(C(F)(F)F)cc(C(F)(F)F)c1` (stereo not given), the GI50 in the assay on OVCAR-3 is 15.2 µM (inactive); in the assay with A498 it was > 100 µM (inactive); in the assay on HCT-15, 24.4 µM; in the assay on SK-MEL-5, 36.3 µM (inactive); in the assay with COLO 205, 24 µM (inactive); in the assay on K562 it was 19.5 µM (inactive). In addition, the GI50 in the assay on SNB-19 is 32.7 µM (inactive); with RPMI-8226, 15.9 µM (inactive); with IGROV-1, 45.7 µM (inactive); with SK-MEL-2, 20.9 µM (inactive); with SK-OV-3, 33.4 µM (inactive); in the assay on OVCAR-4, 13.5 µM (inactive). Moreover, the GI50 with MDA-MB-435 was 22.1 µM (inactive); in the assay on BT-549 it was 27.2 µM (inactive); with HT-29 it was 26.1 µM (inactive); in the assay with SF-539, 21.9 µM (inactive).
For `Nc1ncnc2c1nnn2C1C=CC(CP(=O)(O)O)C1` (stereo not given), the GI50 in the assay with OVCAR-3 is > 100 µM (inactive); in the assay on HCT-15, greater than 100 µM; in the assay with SK-MEL-5, > 100 µM (inactive); with COLO 205 it was > 100 µM (inactive); with SNB-19, > 100 µM (inactive); in the assay on RPMI-8226, > 100 µM (inactive). In addition, the GI50 is > 100 µM (inactive) in the assay on IGROV-1; > 100 µM (inactive) in the assay on SK-MEL-2; > 100 µM (inactive) with SK-OV-3; > 100 µM (inactive) in the assay with OVCAR-4; > 100 µM (inactive) in the assay on MDA-N; > 10 µM (inactive) with MDA-MB-435. For the same molecule, the GI50 with HT-29 and with SF-539 was > 100 µM (inactive) each time.
On to `Cn1cnc(N2CCCC2)c(C#N)c1=S`, for which the GI50 with OVCAR-3 was > 100 µM (inactive); with A498, > 100 µM (inactive); in the assay on HCT-15 it was greater than 100 µM; in the assay with NCI-H522, > 100 µM (inactive); in the assay on SK-MEL-5, > 100 µM (inactive); with COLO 205, > 100 µM (inactive). Besides, the GI50 with K562, in the assay on SNB-19, with RPMI-8226, with IGROV-1, in the assay on SK-MEL-2 and with OVCAR-4 was > 100 µM (inactive) in each case. The GI50 in the assay on MDA-N, with MDA-MB-435, with HT-29 and with SF-539 was > 100 µM (inactive) each time.
Consider `C=CCC1C2CCC(O[Si](C(C)C)(C(C)C)C(C)C)(C(C(=O)OC)C2)C1O` (stereo not given), for which the GI50 in the assay on OVCAR-3 is > 100 µM (inactive); in the assay with A498, > 100 µM (inactive); in the assay with HCT-15 it was 77.3 µM; in the assay on SK-MEL-5 it was 53 µM (inactive); with COLO 205, > 100 µM (inactive); in the assay with K562, 71.9 µM (inactive). In addition, the GI50 with SNB-19 is > 100 µM (inactive); in the assay on RPMI-8226 it was 72.6 µM (inactive); in the assay with IGROV-1, 69.2 µM (inactive); with SK-MEL-2 it was 41.9 µM (inactive); in the assay with SK-OV-3, > 100 µM (inactive); in the assay on OVCAR-4, > 100 µM (inactive). The GI50 in the assay on MDA-N was > 100 µM (inactive); in the assay with MDA-MB-435, 53.7 µM (inactive); in the assay on HT-29, 53.7 µM (inactive); in the assay on SF-539 it was > 100 µM (inactive).
As for `NCCCn1c2ccccc2c2c3c(c4c(c21)CCC(O)CC4)C(=O)NC3=O` (stereo not given), the GI50 was 2.55 µM (inactive) in the assay with OVCAR-3; 9.38 µM (inactive) with A498; 11 µM in the assay with HCT-15; 2.44 µM (inactive) in the assay on NCI-H522; 3.31 µM (inactive) with SK-MEL-5; 0.69 µM (active) in the assay on K562. Besides, the GI50 is 1.98 µM (inactive) in the assay with RPMI-8226; 9.79 µM (inactive) with IGROV-1; 10.4 µM (inactive) in the assay with SK-MEL-2; 1.85 µM (inactive) in the assay on OVCAR-4; 1.53 µM (inactive) in the assay with MDA-MB-435; 4.81 µM (inactive) in the assay on BT-549. Besides, the GI50 in the assay with HT-29 is 0.729 µM (active); in the assay on SF-539 it was 6.61 µM (inactive).

The record behind these values is ChEMBL document CHEMBL1201862, “PubChem BioAssay data set” (2004).
